From patent US12415770B2, “Modulators of liver receptor homologue 1 (LRH-1) and uses” (Emory University, priority 2017, dated 2025)

Tests used:
LRH-1 = molecular target: T1, LRH-1 (Homo sapiens, UniProt O00482); experiment: Luciferase reporter assay (SHP-luc) in HeLa cells transfected with full-length LRH-1; format: cell-based; settings: for EC50 / EC50 (μM): HeLa cells, SHP-luc reporter, 24 hours, 0.03-30 μM; for Relative Efficacy: fold increase over baseline (DMSO-treated cells) relative to the fold increase induced by RJW100
T1 construct: The transfected plasmids included full-length LRH-1 in a pCI vector; expressed in transfected cells; host or cells: HeLa
Method: EC50 and Relative Activity values were calculated from luciferase reporter assays.

LRH-1 LBD = molecular target: T2, LRH-1 LBD (Homo sapiens, UniProt O00482); experiment: Thermofluor (DSF) assay, purified LRH-1 LBD-His protein; format: binding; settings: for ΔTm at 50 µM / ΔTm (mean +/− SEM) (° C.): 50 μM compound, relative to DLPC-bound LRH-1; for ΔTm at 50 µM: read-out: ΔTm (mean +/− SEM) (° C.)
T2 construct: LRH-1 LBD (residues 299-541) in the pMSC7 vector was expressed in BL21 (DE3) pLysS E. coli; made in house; host or cells: E. coli BL21 (DE3) pLysS
Method: Thermofluor assays—Purified LRH-1 LBD-His protein (0.2 mg/ml) was incubated overnight with 50 μM of each compound at 4° C. The final DMSO concentration in the reactions was 1%. SYPRO orange dye (Invitrogen) was then added at a 1:1000 dilution. Reactions were heated at a rate of 0.5° C. per minute, using a StepOne Plus Real Time PCR System (ThermoFisher). […] Data were analyzed by first subtracting baseline fluorescence (ligands+SYPRO with no protein) and then fitting the curves using the Bolzman equation (GraphPad Prism, v6) to determine the Tm. […]

T2 sequence (O00482 299-541): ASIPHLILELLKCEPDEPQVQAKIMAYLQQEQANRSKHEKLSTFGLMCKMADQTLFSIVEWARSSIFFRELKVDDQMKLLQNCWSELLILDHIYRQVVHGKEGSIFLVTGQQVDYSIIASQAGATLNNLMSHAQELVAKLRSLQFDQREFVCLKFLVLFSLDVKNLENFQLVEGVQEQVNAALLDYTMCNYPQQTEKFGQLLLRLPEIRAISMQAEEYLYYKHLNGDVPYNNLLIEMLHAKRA
T1 sequence (O00482 whole entry): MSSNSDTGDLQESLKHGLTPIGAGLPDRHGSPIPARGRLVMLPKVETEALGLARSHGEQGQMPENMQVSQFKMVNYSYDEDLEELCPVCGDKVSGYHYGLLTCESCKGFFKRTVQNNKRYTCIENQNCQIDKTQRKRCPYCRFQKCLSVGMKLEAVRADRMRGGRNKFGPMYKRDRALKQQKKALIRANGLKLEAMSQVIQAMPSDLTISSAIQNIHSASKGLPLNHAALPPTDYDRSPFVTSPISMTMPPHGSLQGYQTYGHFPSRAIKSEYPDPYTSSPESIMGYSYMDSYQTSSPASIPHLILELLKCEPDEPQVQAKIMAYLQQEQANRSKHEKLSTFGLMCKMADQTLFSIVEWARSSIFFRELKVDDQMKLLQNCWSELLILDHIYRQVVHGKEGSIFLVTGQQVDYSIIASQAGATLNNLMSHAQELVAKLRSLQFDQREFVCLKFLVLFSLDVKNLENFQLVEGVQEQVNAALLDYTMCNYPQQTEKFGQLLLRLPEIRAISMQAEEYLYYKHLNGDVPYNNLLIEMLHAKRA

Row | EC50 (LRH-1) [nM] | Relative Efficacy (LRH-1) | ΔTm at 50 µM (LRH-1 LBD) [°C] | SMILES | also measured
1 | 2000 | 2.83 | < 1 | C=C(c1ccccc1)C12CCC(O)C1CC(CCCCCCCCCCO)=C2c1ccccc1 (stereo not drawn) [Compound 11e, Exo-5-(10-hydroxydecyl)-4-phenyl-3a-(1-phenylvinyl)-1,2,3,3a,6,6a-hexahydropentalen-1-ol] | 
2 |  | 0.99 | 1.5 | C=C(c1ccccc1)[C@@]12CC[C@@H](O)C1CC(CCCCCC)=C2c1cc(N)cc(F)c1 (mixture of isomers) [Compound 18g, (Exo)-4-(3-amino-5-fluorophenyl)-5-hexyl-3a-(1-phenylvinyl)-1,2,3,3a,6,6a-hexahydropentalen-1-ol] | EC50 (μM) (LRH-1): cnc
3 | > 30000 | 2.8 | < 1 | C=C(c1ccccc1)[C@@]12CC[C@@H](O)C1CC(CCCCCC)=C2c1cc(O)cc(F)c1 (mixture of isomers) [Compound 18f, (Exo)-4-(3-fluoro-5-hydroxyphenyl)-5-hexyl-3a-(1-phenylvinyl)-1,2,3,3a,6,6a-hexahydropentalen-1-ol] | 
4 | 5000 | 0.86 | < 1 | C=C(c1ccc(O)cc1)[C@@]12CC[C@@H](O)C1CC(CCCCCC)=C2c1ccccc1 (mixture of isomers) [Compound 23b, (Exo)-5-hexyl-3a-(1-(4-hydroxyphenyl)vinyl)-4-phenyl-1,2,3,3a,6,6a-hexahydropentalen-1-ol] | 
5 | 5000 | 2.48 | -2.4 | C=C(c1ccccc1)[C@@]12CC[C@@H](O)[C@@H]1CC(CCCCCCCCCCOP(=O)([O-])OCC[N+](C)(C)C)=C2c1ccccc1 (relative stereo) [Compound 11g, 10-(6-exo-hydroxy-3-phenyl-3 a-(1-phenylvinyl)-1,3a,4,5,6,6a-hexahydropentalen-2-yl)decyl (2-(trimethylammonio)ethyl) phosphate] | 
6 | 300 | 1.74 | 2.5 | C=C(c1ccccc1)[C@@]12CC[C@@H](O)[C@@H]1CC(CCCCCCCCCCC(=O)O)=C2c1ccccc1 (relative stereo) [Compound 12f, 11-(6-exo-hydroxy-3-phenyl-3a-(1-phenylvinyl)-1,3a,4,5,6,6a-hexahydropentalen-2-yl)undecanoic acid] | 
7 | > 30000 | 0.9 | < 1 | C=C(c1ccccc1)[C@@]12CC[C@@H](O)C1CC(CCCCCC)=C2c1cc(O)ccc1F (mixture of isomers) [Compound 16f, (Exo)-4-(2-fluoro-5-hydroxyphenyl)-5-hexyl-3a-(1-phenylvinyl)-1,2,3,3a,6,6a-hexahydropentalen-1-ol] | 

The remaining lines, values behind:

Row | SMILES | EC50 (LRH-1) [nM] | Relative Efficacy (LRH-1) | ΔTm at 50 µM (LRH-1 LBD) [°C] | also measured
8 | C=C(c1ccccc1)C12CCC(OS(=O)(=O)NC(N)=O)C1CC(CCCCCC)=C2c1ccccc1 (stereo not drawn) [Compound 50-endo, (Endo or Exo)-5-hexyl-4-phenyl-3a-(1-phenylvinyl)-1,2,3,3a,6,6a-hexahydropentalen-1-yl carbamoylsulfamate] |  |  |  | LRH-1 activation (LRH-1; WT LRH-1): comparable or slightly higher LRH-1 activation; stabilization of LRH-1-ligand complex / Tm shift (LRH-1 LBD; WT LRH-1): greatly stabilized the LRH-1-ligand complex
9 | C=C(c1ccccc1)[C@@]12CC[C@H](N=[N+]=[N-])C1CC(CCCCCC)=C2c1ccccc1 (stereo partly drawn) [Compound 31-endo, (Endo or Exo)-5-hexyl-4-phenyl-3a-(1-phenylvinyl)-1,2,3,3a,6,6a-hexahydropentalen-1-azide] | 5000 | 0.70 | < 1 | 
10 | C=C(c1ccccc1)C12CCC(O)C1CC(CCCC(=O)O)=C2c1ccccc1 (stereo not drawn) [Compound 5f, 4-(6-exo-hydroxy-3-phenyl-3a-(1-phenylvinyl)-1,3a,4,5,6,6a-hexahydropentalen-2-yl)butanoic acid] |  | 1.43 | 2.3 | EC50 (μM) (LRH-1): cnc
11 | C=C(c1ccccc1)[C@@]12CC[C@@H](O)[C@@H]1CC(CCCCCCC(=O)O)=C2c1ccccc1 (relative stereo) [Compound 8f, 7-(6-exo-hydroxy-3-phenyl-3a-(1-phenylvinyl)-1,3a,4,5,6,6a-hexahydropentalen-2-yl)heptanoic acid] | 4000 | 1.17 | 3.7 | 
12 | C=C(c1ccccc1)[C@@]12CC[C@@H](NC(C)=O)C1CC(CCCCCC)=C2c1ccccc1 (stereo partly drawn) [Compound 35-exo, N-((endo or exo)-5-hexyl-4-phenyl-3a-(1-phenylvinyl)-1,2,3,3a,6,6a-hexahydropentalen-1-yl) acetamide] | 17000 |  | -1.1 | 
13 | C=C(c1ccccc1)[C@@]12CC[C@@H](N)C1CC(CCCCCC)=C2c1ccccc1 (stereo partly drawn) [Compound 33-exo, (Endo or Exo)-5-hexyl-4-phenyl-3a-(1-phenylvinyl)-1,2,3,3a, 6,6a-hexahydropentalen-1-amine] |  | 0.56 | -3 | 
14 | C=C(c1ccccc1)C12CCC(O)C1CC(CCCCC(=O)O)=C2c1ccccc1 (stereo not drawn) [Compound 6f, 5-(6-exo-hydroxy-3-phenyl-3a-(1-phenylvinyl)-1,3a,4,5,6,6a-hexahydropentalen-2-yl)pentanoic acid] |  | 0.60 | 1.3 | EC50 (μM) (LRH-1): cnc
15 | C=C(c1ccccc1)C12CCC(O)C1CC(CCCCCOP(=O)([O-])OCC[N+](C)(C)C)=C2c1ccccc1 (stereo not drawn) [Compound 6g, 5-(6-exo-hydroxy-3-phenyl-3a-(1-phenylvinyl)-1,3a,4,5,6,6a-hexahydropentalen-2-yl)pentyl (2-(trimethylammonio)ethyl) phosphate] |  | 0.00 | < 1 | EC50 (μM) (LRH-1): cnc
16 | C=C(c1ccccc1)C12CCC(N)C1CC(CCCCCC)=C2c1ccccc1 (stereo not drawn) [Compound 33-endo, (Endo or Exo)-5-hexyl-4-phenyl-3a-(1-phenylvinyl)-1,2,3,3a, 6,6a-hexahydropentalen-1-amine] |  | 0.56 |  | ΔTm (mean +/− SEM) (° C.) (LRH-1 LBD): ns (Ns = Tm changes were less than 1° C.)
17 | C=C(c1ccccc1)[C@@]12CC[C@@H](O)[C@@H]1CC(CCCCCCCCCOP(=O)([O-])OCC[N+](C)(C)C)=C2c1ccccc1 (relative stereo) [Compound 10g, 9-(6-exo-hydroxy-3-phenyl-3a-(1-phenylvinyl)-1,3a,4,5,6,6a-hexahydropentalen-2-yl)nonyl (2-(trimethylammonio)ethyl) phosphate] | 2000 | 2.74 | < 1 | 
18 | C=C(c1ccccc1)[C@@]12CCC(O)C1CC(CCCCCCCCOP(=O)(OCC)OCC)=C2c1ccccc1 (stereo partly drawn) [Compound 53-exo, (Endo or Exo) diethyl (8-(6-hydroxy-3-phenyl-3a-(1-phenylvinyl)-1,3a,4,5,6,6a-hexahydropentalen-2-yl)octyl)phosphate] |  | 0.37 |  | ΔTm (mean +/− SEM) (° C.) (LRH-1 LBD): ns (Ns = Tm changes were less than 1° C.)
19 | C=C(c1ccccc1)[C@@]12CC[C@@H](O)C1CC(CCCCCCCCOC(C)=O)=C2c1ccccc1 (stereo partly drawn) [Compound 47-endo, (Exo or Endo) 8-(6-hydroxy-3-phenyl-3a-(1-phenylvinyl)-1,3a,4,5,6,6a-hexahydropentalen-2-yl)octyl acetate] |  | 1.48 |  | ΔTm (mean +/− SEM) (° C.) (LRH-1 LBD; 50 µM): ns (Ns = Tm changes were less than 1° C.)
20 | C=C(c1ccccc1)[C@@]12CC[C@@H](O)C1CC(CCCCCCCCOC(C)=O)=C2c1ccccc1 (stereo partly drawn) [Compound 47-exo, (Exo or Endo) 8-(6-hydroxy-3-phenyl-3a-(1-phenylvinyl)-1,3a,4,5,6,6a-hexahydropentalen-2-yl)octyl acetate] | 700 | 3.70 | 1.5 | 
21 | C=C(c1ccccc1)C12CCC(O)C1CC(CCCCCCCOP(=O)([O-])OCC[N+](C)(C)C)=C2c1ccccc1 (stereo not drawn) [Compound 8g, 7-(6-exo-hydroxy-3-phenyl-3a-(1-phenylvinyl)-1,3a,4,5,6,6a-hexahydropentalen-2-yl)heptyl (2-(trimethylammonio)ethyl) phosphate] |  | 0.81 | 2.9 | EC50 (μM) (LRH-1): cnc
22 | C=C(c1ccccc1)C12CCC(O)C1CC(CCCCCCCCCO)=C2c1ccccc1 (stereo not drawn) [Compound 10e, Exo-5-(9-hydroxynonyl)-4-phenyl-3a-(1-phenylvinyl)-1,2,3,3a,6,6a-hexahydropentalen-1-ol] | 1000 | 1.30 | 4.1 | 
23 | C=C(c1ccccc1)C12CCC(O)C1CC(CCCCCCO)=C2c1ccccc1 (stereo not drawn) [Compound 7e, Exo-5-(6-hydroxyhexyl)-4-phenyl-3a-(1-phenylvinyl)-1,2,3,3a,6,6a-hexahydropentalen-1-ol] | 1000 | 1.74 | 3.3 | 
24 | C=C(c1ccccc1)[C@@]12CC[C@@H](O)[C@@H]1CC(CCCCCCCCO)=C2c1ccccc1 (relative stereo) [Compound 9e, Exo-5-(8-hydroxyoctyl)-4-phenyl-3a-(1-phenylvinyl)-1,2,3,3a,6,6a-hexahydropentalen-1-ol] | 700 | 1.52 | 4 | 
25 | C=C(c1ccccc1)[C@@]12CC[C@H](OC(N)=O)C1CC(CCCCCC)=C2c1ccccc1 (stereo partly drawn) [Compound 29-endo, (Endo or Exo)-5-hexyl-4-phenyl-3a-(1-phenylvinyl)-1,2,3,3a,6,6a-hexahydropentalen-1-yl carbamate] |  | 0 | 2.8 | EC50 (μM) (LRH-1): cnc
